The text below walks through data of ChEMBL document CHEMBL3507680, “University of Dundee, Gates Library screen for HepG2 cell viability”.

The nature of the series: Human HepG2 cell viability assay in 384 well format. It counts as toxicity, cell-based. Also on record: dose 125 nL, time 70.5 hour; concentration not given beside the values. To be noted: HepG2 cells, read-out: Inhibition.
For the compound `CN(Cc1cnn(C)c1)C(=O)CCS(=O)(=O)c1ccc2c(c1)OCCO2`, the cytotoxicity at 70.5 h was -112%.

As for `CCOc1ccc(CNC(=O)N(C)CC(C)(C)O)cc1C`, the cytotoxicity at 70.5 h is -60%.

Consider `CCn1nc(C)cc1C(=O)N1CCC(Nc2ccc(C)nn2)CC1`, for which the cytotoxicity at 70.5 h is -85.5%.

In the case of `CN(Cc1cnn(C)c1)C(=O)CCc1ccc2c(c1)OCO2`, the cytotoxicity at 70.5 h was -58.4%.

Regarding `CN(Cc1cc(Br)cn1C)C(=O)c1cscn1`, the cytotoxicity at 70.5 h was -0.963%.

Take `CNS(=O)(=O)Cc1ccccc1CNc1ccc(C#N)cn1`: the cytotoxicity at 70.5 h turned out to be 22.4%.

Consider `COc1cc(CNC(=O)Nc2nnc(C(C)C)s2)ccc1O`, for which the cytotoxicity at 70.5 h is -10.5%.

Turning to `COc1cc(CNC(=O)Nc2nnc(C(F)(F)F)s2)ccc1O`, the cytotoxicity at 70.5 h worked out at 2.56%.

With `CNS(=O)(=O)Cc1ccc(CNc2ccc(C#N)cn2)cc1`, the cytotoxicity at 70.5 h was -6.5%.

In the case of `Cc1nnc2n1CCN(C(=O)c1cnc3c(cnn3C(C)C)c1)C2`, the cytotoxicity at 70.5 h was 25.5%.

As for `CCCN1CCCN(C(=O)Nc2ccc3c(c2)OCO3)CC1`, the cytotoxicity at 70.5 h is -7.91%.

Regarding `Cc1nnc2n1CCN(C(=O)c1cnc3c(cnn3CC(C)C)c1)C2`, the cytotoxicity at 70.5 h is 25.8%.

Take `CCCn1[nH]cc/c1=N\C(=O)CN1CCCC1c1cccn1C` (configuration not stated): the cytotoxicity at 70.5 h was -2.18%.

On to `O=C(NS(=O)(=O)Cc1cc(-c2ccccc2)no1)C1CCOCC1`, for which the cytotoxicity at 70.5 h is -1.22%.

As for `CCOCC(=O)NC(C)Cc1ccccc1Br` (configuration not stated), the cytotoxicity at 70.5 h was -4.95%.

For the compound `CS(=O)(=O)CCC(=O)NC(c1ccc(F)cc1)C(F)(F)F` (configuration not stated), the cytotoxicity at 70.5 h is -1.59%.

With `Cc1cc(S(=O)(=O)N2CC[C@@H](O)C2)c(Cl)cc1F`, the cytotoxicity at 70.5 h is -6.21%.

On to `COC(=O)NCCC(=O)NC(C)Cc1ccccc1Br` (configuration not stated), for which the cytotoxicity at 70.5 h was -7.4%.

`Cc1ccc(N(CCC#N)C(=O)CN2CCCC2c2cccs2)cc1` (configuration not stated): the cytotoxicity at 70.5 h is -2.42%.

For the compound `CCCn1[nH]cc/c1=N\C(=O)CN1CCCC1Cn1cc(C)cn1` (configuration not stated), the cytotoxicity at 70.5 h is -4.99%.

For `CC(CS(C)(=O)=O)N(C(=O)Nc1cc(F)ccc1Cl)C1CC1` (configuration not stated), the cytotoxicity at 70.5 h came out at 2.35%.

With `CCc1ccc(CNC(=O)CCNc2ncccn2)s1`, the cytotoxicity at 70.5 h is -13.5%.

In the case of `O=C(CCNc1ncccn1)NCc1ccc(Br)s1`, the cytotoxicity at 70.5 h was -11.3%.

With `CCc1ccc(CNC(=O)CCNS(=O)(=O)c2cn(C)c(C)n2)s1`, the cytotoxicity at 70.5 h is -7.93%.

On to `O=C(CN1C=Nc2ccccc2S1(=O)=O)NC1CCCCC1`, for which the cytotoxicity at 70.5 h was 3.38%.

Regarding `O=C(c1cc(C2CC2)[nH]n1)N1CCCN(c2nccs2)CC1`, the cytotoxicity at 70.5 h is -5.32%.

Regarding `CC(NC(=O)CN1C=Nc2ccccc2S1(=O)=O)C1CC1` (configuration not stated), the cytotoxicity at 70.5 h was 11%.

Take `Cc1csc(N2CCN(C(=O)c3cc(C4CC4)[nH]n3)CC2)n1`: the cytotoxicity at 70.5 h was -5.91%.

For the compound `CCCc1nc(C)c(C(=O)NCc2ccc(C)n2C)s1`, the cytotoxicity at 70.5 h stood at 17.6%.

With `Cc1cnn(CCC(=O)NS(=O)(=O)N2CCCc3ccccc32)c1`, the cytotoxicity at 70.5 h is -5.92%.

Take `Cc1cnn(CCC(=O)NS(=O)(=O)N2CCc3ccccc32)c1`: the cytotoxicity at 70.5 h was -8.38%.

`Cc1c(Br)cccc1C(=O)NCc1cnn(C)c1`: the cytotoxicity at 70.5 h turned out to be 2.04%.

With `Cc1c(NC(C)C(C)C)cccc1C(=O)NCc1nccn1C` (configuration not stated), the cytotoxicity at 70.5 h was -3.37%.

For the compound `O=C(CC1=CCCCC1)NCc1ccnc(OC2CCOCC2)c1`, the cytotoxicity at 70.5 h was -6.35%.

Regarding `CCOC(=O)c1ccc(CNC(=O)c2ccc(C)nc2)o1`, the cytotoxicity at 70.5 h came out at 11%.

Turning to `Cc1cc(C(=O)OCC2CCCN2C(N)=O)c(C)o1` (configuration not stated), the cytotoxicity at 70.5 h was -6.63%.

Take `COc1ccccc1CC1CCN(C(=O)CCc2ccccn2)CC1`: the cytotoxicity at 70.5 h is -8.07%.

For the compound `CCOC(=O)c1ccc(CNC(=O)c2ccncc2Cl)o1`, the cytotoxicity at 70.5 h is -7.26%.

For `Cc1nc(C(C)C)sc1C(=O)N(C)Cc1cnn(C)c1`, the cytotoxicity at 70.5 h was 14.2%.

As to `COc1ccccc1CC1CCCN(CCN2CCOC2=O)C1` (configuration not stated), the cytotoxicity at 70.5 h was -7.17%.

With `O=C(CS(=O)(=O)c1ccc(Cl)cc1)NC1CCCc2ccccc21` (configuration not stated), the cytotoxicity at 70.5 h was determined as 1.89%.

Regarding `Cc1noc(C)c1C(=O)NCCN1CCN(c2ccccc2)CC1`, the cytotoxicity at 70.5 h was 1.76%.

As to `CS(=O)(=O)NC1CCCN(C(=O)Nc2cccnc2N2CCCC2)C1` (configuration not stated), the cytotoxicity at 70.5 h was found to be 0.921%.

Turning to `COCCn1nc(C(=O)N(C)Cc2ccc3ccccc3c2)ccc1=O`, the cytotoxicity at 70.5 h is -0.954%.

With `Cc1ccsc1C(=O)N1CCC(Nc2cccnc2)CC1`, the cytotoxicity at 70.5 h is -4.2%.

With `COCCOc1ccc(NC(=O)N2CCOC(C(N)=O)C2)cc1F` (configuration not stated), the cytotoxicity at 70.5 h was determined as 25.8%.

Turning to `CC(C)c1nnc2n1CCN(C(=O)c1cn(-c3ccccc3)nn1)C2`, the cytotoxicity at 70.5 h was -6.83%.

Turning to `N#CCSCCCN1CCN(C(=O)c2cccc(Cl)c2)CC1`, the cytotoxicity at 70.5 h is 2.68%.

For the compound `COCCn1nc(C(=O)N(C)Cc2cccnc2)ccc1=O`, the cytotoxicity at 70.5 h stood at 4.23%.

As to `COCCNC(=O)CN(C)CCn1nc2ccccn2c1=O`, the cytotoxicity at 70.5 h was -5.55%.

As for `COC(=O)C(C)(C)NC(=O)C1CC(=O)N(C2CC2)C1` (configuration not stated), the cytotoxicity at 70.5 h is -6.5%.

`CCOC(=O)N1CCN(C(=O)c2cc(-c3ccccc3F)on2)CC1`: the cytotoxicity at 70.5 h is -0.971%.

Turning to `O=C(NCc1cccnc1)NC1CCCN(c2ncccn2)C1` (configuration not stated), the cytotoxicity at 70.5 h is -10.3%.

`O=C(NCc1cccc(F)c1)NC1CCCN(c2ncccn2)C1` (configuration not stated): the cytotoxicity at 70.5 h was -9.75%.

As for `N#Cc1ccc(CNC(=O)NC2CCCN(c3ncccn3)C2)cc1` (configuration not stated), the cytotoxicity at 70.5 h is -9.27%.

As to `Cc1ccc(CNC(=O)NC2CCCN(c3ncccn3)C2)n1C` (configuration not stated), the cytotoxicity at 70.5 h is -8.01%.

With `CN(C)C(=O)Cc1ccc(NC(=O)NC2CCCC2)cc1`, the cytotoxicity at 70.5 h was -7.5%.

For `CC(C)CN1CCN(C(=O)c2cc(=O)c3ccccc3[nH]2)CC1`, the cytotoxicity at 70.5 h is -2.68%.

With `COCc1ccccc1NC(=O)NCc1ccc(OCC2CC2)nc1`, the cytotoxicity at 70.5 h was -7.17%.

For `O=C(NCc1ccc(OCC2CC2)nc1)Nc1c(F)cccc1F`, the cytotoxicity at 70.5 h was -2.96%.

For `Cc1nn(CC(=O)N2CCCN(c3cccnn3)CC2)c(C)c1Cl`, the cytotoxicity at 70.5 h stood at 0.771%.

In the case of `Cc1nc(CC(=O)N2CCN(Cc3ccc(C#N)cc3)CC2)cs1`, the cytotoxicity at 70.5 h was -1.78%.

Take `CCOc1ccc(S(=O)(=O)NC(=O)c2c(C)noc2C(C)C)cc1`: the cytotoxicity at 70.5 h stood at 1.8%.

In the case of `Cc1ccc(CCCC(=O)N(C)CCN2CCOCC2)cc1`, the cytotoxicity at 70.5 h stood at 13.8%.

As to `COc1ccc(CCC(=O)N(C)CCN2CCOCC2)cc1OC`, the cytotoxicity at 70.5 h was -7.02%.

As for `Cc1cnn(CC2CCCN2C(=O)Cc2c(C)noc2Cl)c1` (configuration not stated), the cytotoxicity at 70.5 h is -4.41%.

With `Cc1nccn1C1CCCN(C(=O)c2cnn(C)c2C2CC2)C1` (configuration not stated), the cytotoxicity at 70.5 h is -0.648%.

For the compound `Cc1ncncc1C(=O)N1CCCC(n2ccnc2C)C1` (configuration not stated), the cytotoxicity at 70.5 h was 1.79%.

Consider `CC1CCCCN1C(=O)c1n[nH]c(=O)c2ccccc12` (configuration not stated), for which the cytotoxicity at 70.5 h was found to be 32.4%.

As for `CC(OCCCNC(=O)c1cccnc1O)c1ccccc1` (configuration not stated), the cytotoxicity at 70.5 h is -1.73%.

As for `CC(=O)NCCNC(=O)c1ccc(C)c(-n2cccc2)c1`, the cytotoxicity at 70.5 h is -10.2%.

Take `Cc1ccc(C(=O)NC2CCOc3ccccc32)cc1S(C)(=O)=O` (configuration not stated): the cytotoxicity at 70.5 h was determined as 27.5%.

As to `COC(=O)c1ccoc1CN(C)CC(=O)N(C)C`, the cytotoxicity at 70.5 h was -8.41%.

On to `O=C(NCc1ccccc1F)N1CCCCC1C1OCCO1` (configuration not stated), for which the cytotoxicity at 70.5 h is -17.1%.

Turning to `CCCc1noc(C(C)N2CCN(c3ccc(C#N)cn3)CC2)n1` (configuration not stated), the cytotoxicity at 70.5 h is -10.8%.

On to `CC(c1nc(C(C)(C)C)no1)N1CCN(c2ccc(C#N)cn2)CC1` (configuration not stated), for which the cytotoxicity at 70.5 h is -13.9%.

`Cn1ccc2c(C(=O)N3CCN(C(=O)C4CCCC4)CC3)cccc21`: the cytotoxicity at 70.5 h is -5.41%.

On to `CC(=O)N(C)C1CCN(C(=O)c2cccc3c2ccn3C)CC1`, for which the cytotoxicity at 70.5 h was 24.8%.

As to `CC(C)C(C)NC(=O)Nc1ccc(CS(=O)(=O)C(C)C)cc1` (configuration not stated), the cytotoxicity at 70.5 h was -12.6%.

As for `CNC(=O)C1CCCCN1C(=O)c1n[nH]c(=O)c2ccccc12` (configuration not stated), the cytotoxicity at 70.5 h is -6.33%.

Turning to `O=C(CCNC(=O)c1cccc(OC(F)F)c1)Nc1cccnc1`, the cytotoxicity at 70.5 h is -3.8%.

For `COc1cccc2c1OCC(NC(=O)NCCc1ccccn1)C2` (configuration not stated), the cytotoxicity at 70.5 h is -9.54%.

For the compound `CC(C)NC(=O)Nc1ccc(CS(C)(=O)=O)cc1`, the cytotoxicity at 70.5 h is -0.657%.

For the compound `Cc1cnn(CC2CCCN2C(=O)CCc2c(C)nn(C)c2C)c1` (configuration not stated), the cytotoxicity at 70.5 h is -18.5%.

As to `CC(C)c1ccc(C(CN)N2CCc3sccc3C2)cc1` (configuration not stated), the cytotoxicity at 70.5 h was -2.57%.

As for `CCCc1noc(CCC(=O)N2CCCCC2Cn2cc(C)cn2)n1` (configuration not stated), the cytotoxicity at 70.5 h was -13.5%.

As for `COc1cccc(N2CCN(CCC(=O)NC3CCCCC3)CC2)c1`, the cytotoxicity at 70.5 h came to 16.7%.

Consider `Cc1ccc(CCNC(=O)N2CCC(Cc3cnn(C)c3)C2)cn1` (configuration not stated), for which the cytotoxicity at 70.5 h is -1.42%.

As to `COc1ccc(C(=O)NCCCOC(C)c2ccccc2)c(OC)c1` (configuration not stated), the cytotoxicity at 70.5 h is -11.1%.

As to `Cc1cnn(CC2CCCN2C(=O)Cc2c(C)noc2C)c1` (configuration not stated), the cytotoxicity at 70.5 h was -14%.

With `CN(CCc1ccncc1)C1CCCN(Cc2noc(C3CC3)n2)C1` (configuration not stated), the cytotoxicity at 70.5 h was -2.71%.

As to `Cc1ccc(O)c(CNC2CCc3nc(C)nn3C2)n1` (configuration not stated), the cytotoxicity at 70.5 h was -0.718%.

For the compound `COCCOCC(=O)Nc1cc(C)ccc1F`, the cytotoxicity at 70.5 h was found to be 4.73%.

As for `CCc1ccc(CC(=O)N2CCN(c3nccn3C)CC2)cc1`, the cytotoxicity at 70.5 h amounted to 8.19%.

Take `CN(CCn1cccn1)C1CCCN(Cc2noc(C3CC3)n2)C1` (configuration not stated): the cytotoxicity at 70.5 h stood at 12.7%.

Consider `CN(Cc1nc2ccccc2s1)C1CCCN(c2cccnn2)C1` (configuration not stated), for which the cytotoxicity at 70.5 h was -11%.

For `O=C(CN1CCS(=O)(=O)CC1)NCc1ccccc1F`, the cytotoxicity at 70.5 h is -8.79%.

On to `CCCC(=O)NC(C)(C)Cc1ccccc1OC`, for which the cytotoxicity at 70.5 h is -12.8%.

As for `CCSCCC(=O)NC1CCN(C(C)c2ccccc2)CC1` (configuration not stated), the cytotoxicity at 70.5 h was -10.7%.

With `N#CCCN(Cc1cccnc1)C(=O)c1cccc(-n2cnnn2)c1`, the cytotoxicity at 70.5 h was -8.57%.

Take `COc1ccc(S(=O)(=O)C(C)C(=O)NCCOc2cccc(C)c2)cc1` (configuration not stated): the cytotoxicity at 70.5 h is -3.65%.

Regarding `Cc1cccnc1CNC(=O)NC(C)Cc1c(C)nn(C)c1C` (configuration not stated), the cytotoxicity at 70.5 h was -5.5%.
